Data: US20250197428A1, “INHIBITORS OF KIF18A AND USES THEREOF” (ACCENT THERAPEUTICS, INC., priority 2022, published 2025)
Where two headings read alike, the source gives them in different places.

How the values were obtained:
KIF18A = KIF18A (Homo sapiens (Human), UniProt Q8NI77); experiment: KIF18A Biochemical Assay (ATPase, ADP-Glo)
OVCAR-3 cells = experiment: In vitro anti-proliferative activity assay in cancer cell line OVCAR-3 (CellTiter-Glo, 4- or 7-day); type: cell-based; details: Homo sapiens, read-out: OVCAR-3 cellular antiproliferation assay IC50
[1] = OVCAR-3, assay duration not indicated

Sequence of KIF18A (Q8NI77 1-367): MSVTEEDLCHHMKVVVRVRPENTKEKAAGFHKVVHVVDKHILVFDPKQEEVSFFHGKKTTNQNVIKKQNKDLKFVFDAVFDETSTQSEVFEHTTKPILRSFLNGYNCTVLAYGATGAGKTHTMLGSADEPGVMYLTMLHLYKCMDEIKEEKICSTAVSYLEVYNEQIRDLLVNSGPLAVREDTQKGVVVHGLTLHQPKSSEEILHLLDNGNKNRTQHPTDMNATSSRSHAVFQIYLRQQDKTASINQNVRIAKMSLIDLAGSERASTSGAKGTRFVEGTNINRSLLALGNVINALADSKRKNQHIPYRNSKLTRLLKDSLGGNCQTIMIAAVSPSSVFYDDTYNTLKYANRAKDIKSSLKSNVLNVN
Sequence of KIF18A (P02550 whole entry partner): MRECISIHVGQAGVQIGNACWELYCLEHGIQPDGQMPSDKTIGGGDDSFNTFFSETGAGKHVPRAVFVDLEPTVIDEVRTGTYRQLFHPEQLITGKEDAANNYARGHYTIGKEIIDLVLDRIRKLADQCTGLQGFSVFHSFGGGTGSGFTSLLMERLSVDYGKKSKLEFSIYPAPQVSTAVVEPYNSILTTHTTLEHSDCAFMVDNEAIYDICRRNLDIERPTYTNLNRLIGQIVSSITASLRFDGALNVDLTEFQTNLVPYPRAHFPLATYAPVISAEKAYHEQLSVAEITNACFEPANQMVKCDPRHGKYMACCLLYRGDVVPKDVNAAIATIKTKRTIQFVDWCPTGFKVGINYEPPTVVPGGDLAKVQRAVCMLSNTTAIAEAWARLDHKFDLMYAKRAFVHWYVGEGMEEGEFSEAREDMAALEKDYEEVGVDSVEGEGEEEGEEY
Sequence of KIF18A (P02554 whole entry partner): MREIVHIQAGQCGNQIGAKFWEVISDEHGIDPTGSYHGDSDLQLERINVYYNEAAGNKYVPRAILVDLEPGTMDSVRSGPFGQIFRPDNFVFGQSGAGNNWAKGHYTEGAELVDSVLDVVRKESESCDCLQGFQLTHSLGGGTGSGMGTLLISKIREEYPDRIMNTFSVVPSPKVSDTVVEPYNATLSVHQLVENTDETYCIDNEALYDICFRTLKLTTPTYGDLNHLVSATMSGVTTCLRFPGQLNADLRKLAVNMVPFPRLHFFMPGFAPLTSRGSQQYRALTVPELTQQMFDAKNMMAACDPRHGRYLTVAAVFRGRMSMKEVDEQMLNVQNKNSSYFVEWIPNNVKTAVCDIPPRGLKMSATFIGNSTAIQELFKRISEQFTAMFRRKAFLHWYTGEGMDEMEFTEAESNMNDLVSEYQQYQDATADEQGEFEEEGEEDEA

SMILES	IC50 (KIF18A) [µM]	IC50 (OVCAR-3 cells; OVCAR-3, 168 h, 7-day assay) [µM]	IC50 (OVCAR-3 cells; [1]) [µM]	IC50 (OVCAR-3 cells; OVCAR-3, 96 h, 4-day assay) [µM]
C[Si]1(C)CCN(c2cc(S(=O)(=O)NCCO)ccc2C(=O)Nc2cccc(OC[C@@H](O)C(F)(F)F)n2)CC1 [Example 131]	< 0.1	< 0.1		
C[Si]1(C)CCN(c2cc(NS(=O)(=O)NCCO)ccc2C(=O)Nc2cccc(OC[C@H](O)C(F)(F)F)n2)CC1 [Example 126]	< 0.1	0.1 to 0.5		
Cc1cc(NC(=O)c2c(F)cc(NS(=O)(=O)CCO)c(F)c2N2CC[Si](C)(C)CC2)nc(N2CCC(F)(F)CC2)n1 [Example 116]	0.5 to 1	> 1		
C[Si]1(C)CCN(c2cc(S(=O)(=O)CCO)ccc2C(=O)Nc2cccc(OC[C@@H](O)C(F)(F)F)n2)CC1 [Example 129]	< 0.1	0.1 to 0.5		
C[Si]1(C)CCN(c2cc(NS(=O)(=O)CCO)ccc2C(=O)Nc2cccc(S(=O)(=O)C3CCCC3)n2)CC1 [Example 22]	0.1 to 0.5			< 0.1
Cc1cc(NC(=O)c2ccc(NS(=O)(=O)CCO)cc2N2CC[C@@]3(C(F)F)C[C@H]3C2)nc(OC[C@@H](O)C(F)(F)F)n1 [Example 74]	> 1	> 1		
Cc1cc(NC(=O)c2cc(F)c(NS(=O)(=O)CCO)cc2N2CC[Si](C)(C)CC2)nc(N2CCC(F)(F)CC2)n1 [Example 103]	< 0.1	0.1 to 0.5		
Cc1cc(NC(=O)c2ccc(NS(=O)(=O)C(C)CO)cc2N2CC[Si](C)(C)CC2)nc(N2CC(F)(F)C2)c1 (centres unmarked) [Example 114]	< 0.1	< 0.1		
C[Si]1(C)CCN(c2cc(NS(=O)(=O)NCCO)ccc2C(=O)Nc2cccc(OC[C@@H](O)C(F)(F)F)n2)CC1 [Example 125]	< 0.1	0.1 to 0.5		
C[Si]1(C)CCN(c2cnccc2C(=O)Nc2cccc(S(=O)(=O)N3CCC(F)(F)CC3)c2)CC1 [Example 27]	> 1			> 1
C[Si]1(C)CCN(c2cc(NS(=O)(=O)CCO)ccc2C(=O)Nc2cccc(N3CCC(F)(F)CC3)n2)CC1 [Example 3, N-(6-(4,4-difluoropiperidin-1-yl)pyridin-2-yl)-2-(4,4-dimethyl-1,4-azasilinan-1-yl)-4-((2-hydroxyethyl)sulfonamido)benzamide]	< 0.1			< 0.1
C[Si]1(C)CCN(c2cc(NS(C)(=O)=O)ccc2C(=O)Nc2cccc(OC[C@H](O)C(F)(F)F)n2)CC1 [Example 128]	< 0.1	0.1 to 0.5		
CC1CN(c2cccc(NC(=O)c3ccc(NS(=O)(=O)CCO)cc3N3CC[Si](C)(C)CC3)n2)CCO1 (centres unmarked) [Example 19]	< 0.1			< 0.1
CC(C)(CO)Nc1ccc(C(=O)Nc2cccc(S(=O)(=O)C3CCCC3)c2)c(N2CC[Si](C)(C)CC2)n1 [Example 97]	> 1	> 1		
CNCCS(=O)(=O)Nc1ccc(C(=O)Nc2cccc(N3CCC(F)(F)CC3)n2)c(N2CC[Si](C)(C)CC2)c1 [Example 101]	< 0.1	0.1 to 0.5		
Cc1cc(NC(=O)c2ncc(NS(=O)(=O)CCO)cc2N2CC[Si](C)(C)CC2)nc(N2CCC(F)(F)CC2)n1 [Example 26]	< 0.1			0.1 to 0.5
C[Si]1(C)CCN(c2cc(S(=O)(=O)CCO)ccc2C(=O)Nc2cccc(OC[C@H](O)C(F)(F)F)n2)CC1 [Example 130]	< 0.1	0.1 to 0.5		
Cc1cc(NC(=O)c2ccc(NS(=O)(=O)CCO)cc2N2CC[Si](C)(C)CC2)nc(N2CCC(F)(F)CC2)c1F [Example 133]	< 0.1	0.1 to 0.5		
Cc1cc(NC(=O)c2ccc(NS(=O)(=O)CCO)cc2N2CC[C@]3(C(F)F)C[C@@H]3C2)nc(OC[C@H](O)C(F)(F)F)n1 [Example 67]	> 1	> 1		
C[Si]1(C)CCN(c2cc(NS(=O)(=O)CCO)c(F)cc2C(=O)Nc2ccnc(N3CCC(F)(F)CC3)n2)CC1 [Example 13]	< 0.1			0.5 to 1
Cc1cc(NC(=O)c2ccc(NS(=O)(=O)CCO)cc2N2CC[C@]3(C(F)F)C[C@@H]3C2)nc(OC[C@@H](O)C(F)(F)F)n1 [Example 73]	> 1	> 1		
C[Si]1(C)CCN(c2cc(S(=O)(=O)NCCO)ccc2C(=O)Nc2cccc(OC[C@H](O)C(F)(F)F)n2)CC1 [Example 132]	< 0.1	< 0.1		
C[Si]1(C)CCN(c2cc(S(=O)(=O)NCCO)ccc2C(=O)Nc2cccc(OCCC(F)(F)F)n2)CC1 [Example 99]	< 0.1	< 0.1		
C[Si]1(C)CCN(c2cc(NS(=O)(=O)CCO)ccc2C(=O)Nc2ccnc(C3CC3)n2)CC1 [Example 15]	< 0.1			> 1
C[Si]1(C)CCN(c2cc(NS(=O)(=O)CCO)ccc2C(=O)Nc2cccc(OC[C@H](O)C(F)(F)F)n2)CC1 [Example 122]	< 0.1	< 0.1		

Continued, in another order:

IC50 (KIF18A) [µM]	IC50 (OVCAR-3 cells; OVCAR-3, 168 h, 7-day assay) [µM]	IC50 (OVCAR-3 cells; [1]) [µM]	SMILES	IC50 (OVCAR-3 cells; OVCAR-3, 96 h, 4-day assay) [µM]
0.1 to 0.5	> 1		Cc1cc(NC(=O)c2ccc(NS(=O)(=O)CCO)cc2N2CC[C@]3(C(C)(F)F)C[C@@H]3C2)nc(N2CCC(F)(F)CC2)n1 [Example 79]	
< 0.1	0.1 to 0.5		O=C(Nc1ccnc(N2CCC(F)(F)CC2)n1)c1ccc(NS(=O)(=O)CCO)cc1N1CC[C@@]2(C(F)F)C[C@H]2C1 [Example 61]	
0.1 to 0.5			Cc1cc(NC(=O)c2ccc(NS(=O)(=O)CCO)cc2N2CCC3(CO)CC3C2)nc(N2CCC(F)(F)CC2)n1 (centres unmarked) [Example 30, N-(2-(4,4-difluoropiperidin-1-yl)-6-methylpyrimidin-4-yl)-4-((2-hydroxyethyl)sulfonamido)-2-(6-(hydroxymethyl)-3-azabicyclo[4.1.0]heptan-3-yl)benzamide]	> 1
< 0.1	0.1 to 0.5		Cc1cc(NC(=O)c2ccc(NS(=O)(=O)CCO)cc2N2CC[C@@]3(C(F)F)C[C@H]3C2)nc(N2CCC(F)(F)CC2)n1 [Example 59]	
0.1 to 0.5	> 1		Cc1cc(NC(=O)c2ccc(NS(=O)(=O)NCCO)cc2N2CC[C@@]3(C(F)F)C[C@H]3C2)nc(N2CCC(F)(F)CC2)n1 [Example 57]	
0.1 to 0.5	0.1 to 0.5		Cc1cc(NC(=O)c2ccc(S(=O)(=O)NCCO)cc2N2CC[C@]3(C(F)F)C[C@@H]3C2)nc(N2CCC(F)(F)CC2)n1 [Example 77]	
0.1 to 0.5			Cc1cc(NC(=O)c2ccc(NS(=O)(=O)CCO)cc2N2CC[C@@]3(CO)C[C@H]3C2)nc(N2CCC(F)(F)CC2)n1 [Example 39]	> 1
< 0.1	0.1 to 0.5		Cc1cc(NC(=O)c2ccc(S(=O)(=O)NCCO)cc2N2CC[C@@]3(C)C[C@H]3C2)nc(N2CCC(F)(F)CC2)n1 [Example 53]	
< 0.1	0.5 to 1		CO[C@]12CCN(c3cc(NS(=O)(=O)CCO)ccc3C(=O)Nc3cc(C)nc(N4CCC(F)(F)CC4)n3)C[C@H]1C2 [Example 81]	
0.1 to 0.5	0.1 to 0.5		Cc1cc(NC(=O)c2ccc(NS(=O)(=O)CCO)cc2N2CC[C@@]3(C(C)(F)F)C[C@H]3C2)nc(N2CCC(F)(F)CC2)n1 [Example 80]	
0.1 to 0.5	> 1		Cc1cc(NC(=O)c2c(F)cc(NS(=O)(=O)CCO)cc2N2CC[C@]3(C(F)F)C[C@@H]3C2)nc(N2CCC(F)(F)CC2)n1 [Example 71]	
< 0.1	0.1 to 0.5		COC[C@]12CCN(c3cc(NS(=O)(=O)CCO)ccc3C(=O)Nc3cc(C)nc(N4CCC(F)(F)CC4)n3)C[C@H]1C2 (single isomer, unassigned) [Example 49a]	
< 0.1	< 0.1		O=C(Nc1cccc(N2CCC(F)(F)CC2)n1)c1ccc(NS(=O)(=O)CCO)cc1N1CC[C@]2(C(F)F)C[C@@H]2C1 [Example 64]	
< 0.1	< 0.1		Cc1cc(NC(=O)c2ccc(NS(=O)(=O)CCO)cc2N2CC[C@]3(C(F)F)C[C@@H]3C2)nc(N2CCC(F)(F)CC2)c1 [Example 65]	
< 0.1		< 0.1	Cc1cc(NC(=O)c2ccc(NS(=O)(=O)CCO)cc2N2CCC3(C(F)F)CC3C2)nc(N2CCC(F)(F)CC2)n1 (centres unmarked) [Example 41]	
< 0.1			Cc1cc(NC(=O)c2ccc(NS(=O)(=O)CCO)cc2N2CC[C@]3(C(F)F)C[C@@H]3C2)nc(N2CCC(F)(F)CC2)n1 [Example 29a, 2-((1S,6R)-6-(difluoromethyl)-3-azabicyclo[4.1.0]heptan-3-yl)-N-(2-(4,4-difluoropiperidin-1-yl)-6-methylpyrimidin-4-yl)-4-((2-hydroxyethyl)sulfonamido)benzamide]	< 0.1
< 0.1	0.5 to 1		CO[C@@]12CCN(c3cc(NS(=O)(=O)CCO)ccc3C(=O)Nc3cc(C)nc(N4CCC(F)(F)CC4)n3)C[C@@H]1C2 [Example 82]	
< 0.1			Cc1cc(NC(=O)c2ccc(NS(=O)(=O)NCCO)cc2N2CC[C@@]3(C)C[C@H]3C2)nc(N2CCC(F)(F)CC2)n1 [Example 42]	> 1
< 0.1	0.1 to 0.5		Cc1cc(NC(=O)c2ccc(S(=O)(=O)NCCO)cc2N2CC[C@]3(C)C[C@@H]3C2)nc(N2CCC(F)(F)CC2)n1 [Example 52]	
< 0.1	0.5 to 1		O=C(Nc1cccc(N2CCC(F)(F)CC2)n1)c1c(F)cc(NS(=O)(=O)CCO)cc1N1CC[C@]2(C(F)F)C[C@@H]2C1 [Example 83]	
< 0.1			Cc1cc(NC(=O)c2ccc(NS(=O)(=O)NCCO)cc2N2CC[C@]3(C)C[C@@H]3C2)nc(N2CCC(F)(F)CC2)n1 [Example 43]	> 1
< 0.1	0.5 to 1		Cc1cc(NC(=O)c2ccc(NS(C)(=O)=O)cc2N2CC[C@@]3(C(F)F)C[C@H]3C2)nc(N2CCC(F)(F)CC2)n1 [Example 55]	
< 0.1		0.1 to 0.5	Cc1cc(NC(=O)c2c(F)cc(NS(=O)(=O)CCO)cc2N2CC[C@]3(C)C[C@@H]3C2)nc(N2CCC(F)(F)CC2)n1 [Example 38]	
< 0.1	0.1 to 0.5		O=C(Nc1ccnc(C2CCC(F)(F)CC2)n1)c1ccc(NS(=O)(=O)CCO)cc1N1CC[C@@]2(C(F)F)C[C@H]2C1 [Example 76]	
